pIC50: −log10 of the molar value.

The record followed here is US10479780B2, “Aminopyrazole derivatives” (Chugai Seiyaku Kabushiki Kaisha, priority 2015, dated 2019).

Common to all, as to type: biochemical
The target of one test is T1, human Lck enzyme (Homo sapiens, UniProt P06239).
T1 construct: purchased Carna Biosciences, Inc. 08-170
As to the kind of experiment: Lck enzyme inhibitory activity (time-resolved fluorometry, biotinylated peptide phosphorylation). As to conditions: biotinylated peptide phosphorylation, read-out: LCK_IC50. In a few lines: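 Readout pairs a europium cryptate-labelled anti-phosphotyrosine antibody with XL665-streptavidin, measured by time-resolved fluorescence. IC50 derived from percent inhibition against untreated controls.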

For a further test, the target named is T2, human Src enzyme (Homo sapiens, UniProt P12931).
T2 construct: purchased Carna Biosciences, Inc. 08-173
T2 sequence (P12931 whole entry): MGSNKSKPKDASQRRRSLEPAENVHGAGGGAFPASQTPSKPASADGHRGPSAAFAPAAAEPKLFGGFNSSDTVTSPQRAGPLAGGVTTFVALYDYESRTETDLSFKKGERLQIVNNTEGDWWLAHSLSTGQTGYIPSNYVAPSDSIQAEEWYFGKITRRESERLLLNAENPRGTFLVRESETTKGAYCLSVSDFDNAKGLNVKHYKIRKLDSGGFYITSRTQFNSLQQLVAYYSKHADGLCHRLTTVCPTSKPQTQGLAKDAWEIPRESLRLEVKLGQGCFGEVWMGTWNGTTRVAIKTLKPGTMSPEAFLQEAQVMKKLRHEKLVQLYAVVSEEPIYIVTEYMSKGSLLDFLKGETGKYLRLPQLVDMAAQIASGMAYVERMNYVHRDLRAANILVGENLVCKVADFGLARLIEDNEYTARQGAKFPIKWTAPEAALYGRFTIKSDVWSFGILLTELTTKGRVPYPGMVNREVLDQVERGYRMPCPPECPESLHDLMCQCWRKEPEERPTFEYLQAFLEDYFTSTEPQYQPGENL
Put plainly: Src enzyme inhibitory activity (time-resolved fluorometry, biotinylated peptide phosphorylation). As to conditions: biotinylated peptide phosphorylation, read-out: SRC_IC50. The procedure: 2. Src Enzyme Inhibitory Activity Src inhibitory activity was determined based on activity of inhibiting phosphorylation reaction of a biotinylated peptide (EGPWLEEEEEAYGWMDF) using a human Src enzyme (manufactured by Carna Biosciences, Inc., cat 08-173). The phosphorylated biotinylated peptide was detected by time-resolved fluorometry using an anti-phosphorylated tyrosine antibody conjugated to europium cryptate, and streptavidin conjugated to XL665, an allophycocyanin derivative. The 50% inhibitory concentration (IC50) was calculated from the inhibition rate relative to the control group without containing the test substance.

Another test has as its target T3, human Yes1 enzyme (Homo sapiens, UniProt P07947).
T3 construct: made in house
Put plainly: Yes1 enzyme inhibitory activity (time-resolved fluorometry, biotinylated peptide phosphorylation). As to conditions: biotinylated peptide phosphorylation, read-out: YES_IC50. A digest of the protocol: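 Inhibition was expressed against a compound-free control to give IC50, using TR-FRET read-out (Eu-cryptate anti-pTyr antibody, streptavidin-XL665).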

T1 sequence (P06239 whole entry): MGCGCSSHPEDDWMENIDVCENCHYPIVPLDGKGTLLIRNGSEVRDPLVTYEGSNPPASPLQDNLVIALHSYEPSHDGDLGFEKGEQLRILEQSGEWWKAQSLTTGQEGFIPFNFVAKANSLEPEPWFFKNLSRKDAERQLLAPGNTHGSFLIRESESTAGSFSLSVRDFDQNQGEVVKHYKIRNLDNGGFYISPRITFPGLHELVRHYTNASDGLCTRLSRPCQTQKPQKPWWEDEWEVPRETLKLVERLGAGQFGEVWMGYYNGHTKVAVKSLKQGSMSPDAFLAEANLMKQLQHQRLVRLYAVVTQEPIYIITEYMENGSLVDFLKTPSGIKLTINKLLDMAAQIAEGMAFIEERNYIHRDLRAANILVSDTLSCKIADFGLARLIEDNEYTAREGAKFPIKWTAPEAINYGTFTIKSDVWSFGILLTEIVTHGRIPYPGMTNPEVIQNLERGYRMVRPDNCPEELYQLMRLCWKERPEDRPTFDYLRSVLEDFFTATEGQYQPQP
T3 sequence (P07947 whole entry): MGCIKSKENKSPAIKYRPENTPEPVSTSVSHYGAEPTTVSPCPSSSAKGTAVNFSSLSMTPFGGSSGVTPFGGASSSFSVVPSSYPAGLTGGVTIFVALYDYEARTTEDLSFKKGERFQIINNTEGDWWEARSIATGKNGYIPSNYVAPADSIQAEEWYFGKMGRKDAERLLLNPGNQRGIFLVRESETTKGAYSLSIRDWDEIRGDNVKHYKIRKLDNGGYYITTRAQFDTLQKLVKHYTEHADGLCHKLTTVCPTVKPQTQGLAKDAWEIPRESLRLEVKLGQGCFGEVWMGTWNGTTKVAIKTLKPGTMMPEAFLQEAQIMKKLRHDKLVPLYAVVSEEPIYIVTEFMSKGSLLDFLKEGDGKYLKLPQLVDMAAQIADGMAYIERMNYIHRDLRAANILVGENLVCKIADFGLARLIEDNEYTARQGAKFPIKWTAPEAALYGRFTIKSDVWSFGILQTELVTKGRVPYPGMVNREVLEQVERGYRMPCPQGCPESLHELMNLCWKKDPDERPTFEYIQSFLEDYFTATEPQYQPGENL

As to `Cc1cc(Oc2c(F)cccc2F)ncc1-n1ncc(C(=O)c2cc3cc(F)c(NS(=O)(=O)CCCF)cc3[nH]2)c1N` [Example 4-2-021, N-[2-[5-amino-1-[6-(2,6-difluorophenoxy)-4-methylpyridin-3-yl]pyrazole-4-carbonyl]-5-fluoro-1H-indol-6-yl]-3-fluoropropane-1-sulfonamide], the figures for the pIC50 at human Lck enzyme, on human Src enzyme and at human Yes1 enzyme were 8.07, 7.37 and 8.82, respectively.

In the case of `Cc1cc(Oc2cccc(F)c2F)ncc1-n1ncc(C(=O)c2cc3cc(F)c(NS(=O)(=O)CCCF)cc3[nH]2)c1N` [Example 4-2-022, N-[2-[5-amino-1-[6-(2,3-difluorophenoxy)-4-methylpyridin-3-yl]pyrazole-4-carbonyl]-5-fluoro-1H-indol-6-yl]-3-fluoropropane-1-sulfonamide], the pIC50 on human Lck enzyme is 7.59; on human Src enzyme, 6.85; on human Yes1 enzyme, 8.27.

As to `Cc1cc(Oc2ccccc2Cl)ncc1-n1ncc(C(=O)c2cc3cc(F)c(NS(=O)(=O)CCCF)cc3[nH]2)c1N` [Example 4-2-023, N-[2-[5-amino-1-[6-(2-chlorophenoxy)-4-methylpyridin-3-yl]pyrazole-4-carbonyl]-5-fluoro-1H-indol-6-yl]-3-fluoropropane-1-sulfonamide], the pIC50 was 7.33 on human Lck enzyme, 7.08 on human Src enzyme and 8.77 on human Yes1 enzyme.

`Cc1cc(Oc2c(F)cccc2Cl)ncc1-n1ncc(C(=O)c2cc3cc(F)c(NS(=O)(=O)CCCF)cc3[nH]2)c1N` [Example 4-2-024, N-[2-[5-amino-1-[6-(2-chloro-6-fluorophenoxy)-4-methylpyridin-3-yl]pyrazole-4-carbonyl]-5-fluoro-1H-indol-6-yl]-3-fluoropropane-1-sulfonamide]: the values for the pIC50 at human Lck enzyme, on human Src enzyme and at human Yes1 enzyme were 7.92, 7.22 and 8.68, respectively.

With `Cc1ccccc1Oc1cc(C)c(-n2ncc(C(=O)c3cc4cc(F)c(NS(=O)(=O)CCCF)cc4[nH]3)c2N)cn1` [Example 4-2-025, N-[2-[5-amino-1-[4-methyl-6-(2-methylphenoxy)pyridin-3-yl]pyrazole-4-carbonyl]-5-fluoro-1H-indol-6-yl]-3-fluoropropane-1-sulfonamide], the pIC50 is 7.46 on human Lck enzyme, 7.28 at human Src enzyme and 8.62 on human Yes1 enzyme.

Consider `Cc1cc(Oc2cccc(Cl)c2)ncc1-n1ncc(C(=O)c2cc3cc(F)c(NS(=O)(=O)CCCF)cc3[nH]2)c1N` [Example 4-2-026, N-[2-[5-amino-1-[6-(3-chlorophenoxy)-4-methylpyridin-3-yl]pyrazole-4-carbonyl]-5-fluoro-1H-indol-6-yl]-3-fluoropropane-1-sulfonamide], for which the pIC50 was 7.43 at human Lck enzyme, 6.92 on human Src enzyme and 8.44 at human Yes1 enzyme.

As to `Cc1cc(Oc2ccc(F)cc2)ncc1-n1ncc(C(=O)c2cc3cc(F)c(NS(=O)(=O)CCCF)cc3[nH]2)c1N` [Example 4-2-027, N-[2-[5-amino-1-[6-(4-fluorophenoxy)-4-methylpyridin-3-yl]pyrazole-4-carbonyl]-5-fluoro-1H-indol-6-yl]-3-fluoropropane-1-sulfonamide], the pIC50 at human Lck enzyme was 7.52; on human Src enzyme, 7.02; on human Yes1 enzyme, 8.00.

On to `Cc1cc(Oc2cc(F)cc(F)c2)ncc1-n1ncc(C(=O)c2cc3cc(F)c(NS(=O)(=O)CCCF)cc3[nH]2)c1N` [Example 4-2-028, N-[2-[5-amino-1-[6-(3,5-difluorophenoxy)-4-methylpyridin-3-yl]pyrazole-4-carbonyl]-5-fluoro-1H-indol-6-yl]-3-fluoropropane-1-sulfonamide], for which the pIC50 at human Lck enzyme is 6.92; at human Src enzyme, 6.47; on human Yes1 enzyme, 7.82.

Consider `Cc1cc(Oc2cccc(F)c2F)ccc1-n1ncc(C(=O)c2cc3cc(F)c(NS(C)(=O)=O)cc3[nH]2)c1N` [Example 4-2-029, N-[2-[5-amino-1-[4-(2,3-difluorophenoxy)-2-methylphenyl]pyrazole-4-carbonyl]-5-fluoro-1H-indol-6-yl]methanesulfonamide], for which the pIC50 on human Lck enzyme was 8.26; at human Src enzyme, 7.55; at human Yes1 enzyme, 9.19.

For `Cc1cc(Oc2cc(F)ccc2F)ncc1-n1ncc(C(=O)c2cc3cc(F)c(NS(C)(=O)=O)cc3[nH]2)c1N` [Example 4-2-030, N-[2-[5-amino-1-[6-(2,5-difluorophenoxy)-4-methylpyridin-3-yl]pyrazole-4-carbonyl]-5-fluoro-1H-indol-6-yl]methanesulfonamide], the pIC50 at human Lck enzyme was 7.59; at human Src enzyme, 6.96; on human Yes1 enzyme, 8.77.

As for `Cc1cc(Oc2c(F)cccc2F)ncc1-n1ncc(C(=O)c2cc3cc(F)c(NS(C)(=O)=O)cc3[nH]2)c1N` [Example 4-2-031, N-[2-[5-amino-1-[6-(2,6-difluorophenoxy)-4-methylpyridin-3-yl]pyrazole-4-carbonyl]-5-fluoro-1H-indol-6-yl]methanesulfonamide], the pIC50 is 8.37 on human Lck enzyme, 7.43 on human Src enzyme and 9.16 on human Yes1 enzyme.

Consider `Cc1cc(Oc2cccc(F)c2F)ncc1-n1ncc(C(=O)c2cc3cc(F)c(NS(C)(=O)=O)cc3[nH]2)c1N` [Example 4-2-032, N-[2-[5-amino-1-[6-(2,3-difluorophenoxy)-4-methylpyridin-3-yl]pyrazole-4-carbonyl]-5-fluoro-1H-indol-6-yl]methanesulfonamide], for which the pIC50 on human Lck enzyme was 7.57; on human Src enzyme it was 7.04; on human Yes1 enzyme, 8.46.

On to `Cc1cc(Oc2ccccc2Cl)ncc1-n1ncc(C(=O)c2cc3cc(F)c(NS(C)(=O)=O)cc3[nH]2)c1N` [Example 4-2-033, N-[2-[5-amino-1-[6-(2-chlorophenoxy)-4-methylpyridin-3-yl]pyrazole-4-carbonyl]-5-fluoro-1H-indol-6-yl]methanesulfonamide], for which the pIC50 was 7.72 on human Lck enzyme, 7.31 at human Src enzyme and 9.04 at human Yes1 enzyme.

Turning to `Cc1cc(Oc2cc(F)ccc2Cl)ncc1-n1ncc(C(=O)c2cc3cc(F)c(NS(C)(=O)=O)cc3[nH]2)c1N` [Example 4-2-034, N-[2-[5-amino-1-[6-(2-chloro-5-fluorophenoxy)-4-methylpyridin-3-yl]pyrazole-4-carbonyl]-5-fluoro-1H-indol-6-yl]methanesulfonamide], the pIC50 on human Lck enzyme was 7.36; at human Src enzyme it was 6.85; at human Yes1 enzyme, 8.34.

In the case of `Cc1cc(Oc2c(F)cccc2Cl)ncc1-n1ncc(C(=O)c2cc3cc(F)c(NS(C)(=O)=O)cc3[nH]2)c1N` [Example 4-2-035, N-[2-[5-amino-1-[6-(2-chloro-6-fluorophenoxy)-4-methylpyridin-3-yl]pyrazole-4-carbonyl]-5-fluoro-1H-indol-6-yl]methanesulfonamide], the pIC50 at human Lck enzyme was 8.17; at human Src enzyme, 7.23; on human Yes1 enzyme, 8.89.

As for `Cc1ccccc1Oc1cc(C)c(-n2ncc(C(=O)c3cc4cc(F)c(NS(C)(=O)=O)cc4[nH]3)c2N)cn1` [Example 4-2-036, N-[2-[5-amino-1-[4-methyl-6-(2-methylphenoxy)pyridin-3-yl]pyrazole-4-carbonyl]-5-fluoro-1H-indol-6-yl]methanesulfonamide], the pIC50 was 7.68 at human Lck enzyme, 7.22 at human Src enzyme and 8.82 on human Yes1 enzyme.

For `Cc1cc(Oc2cccc(Cl)c2)ncc1-n1ncc(C(=O)c2cc3cc(F)c(NS(C)(=O)=O)cc3[nH]2)c1N` [Example 4-2-037, N-[2-[5-amino-1-[6-(3-chlorophenoxy)-4-methylpyridin-3-yl]pyrazole-4-carbonyl]-5-fluoro-1H-indol-6-yl]methanesulfonamide], the pIC50 on human Lck enzyme was 7.52; at human Src enzyme, 7.11; on human Yes1 enzyme, 8.96.

Turning to `Cc1cc(Oc2cccc(F)c2)ncc1-n1ncc(C(=O)c2cc3cc(F)c(NS(C)(=O)=O)cc3[nH]2)c1N` [Example 4-2-038, N-[2-[5-amino-1-[6-(3-fluorophenoxy)-4-methylpyridin-3-yl]pyrazole-4-carbonyl]-5-fluoro-1H-indol-6-yl]methanesulfonamide], the values for the pIC50 at human Lck enzyme, on human Src enzyme and on human Yes1 enzyme were 7.40, 6.89 and 8.72, respectively.

For `Cc1cc(Oc2ccc(F)cc2)ncc1-n1ncc(C(=O)c2cc3cc(F)c(NS(C)(=O)=O)cc3[nH]2)c1N` [Example 4-2-039, N-[2-[5-amino-1-[6-(4-fluorophenoxy)-4-methylpyridin-3-yl]pyrazole-4-carbonyl]-5-fluoro-1H-indol-6-yl]methanesulfonamide], the values for the pIC50 on human Lck enzyme, at human Src enzyme and on human Yes1 enzyme were 7.49, 7.08 and 8.39, respectively.

As for `Cc1cc(Oc2ccccc2F)ccc1-n1ncc(C(=O)c2cc3cc(F)c(NS(=O)(=O)C4CC4)cc3[nH]2)c1N` [Example 4-2-040, N-[2-[5-amino-1-[4-(2-fluorophenoxy)-2-methylphenyl]pyrazole-4-carbonyl]-5-fluoro-1H-indol-6-yl]cyclopropanesulfonamide], the pIC50 on human Lck enzyme was 7.62; at human Src enzyme it was 7.38; at human Yes1 enzyme, 8.66.

With `Cc1cc(Oc2cccc(F)c2F)ccc1-n1ncc(C(=O)c2cc3cc(F)c(NS(=O)(=O)C4CC4)cc3[nH]2)c1N` [Example 4-2-041, N-[2-[5-amino-1-[4-(2,3-difluorophenoxy)-2-methylphenyl]pyrazole-4-carbonyl]-5-fluoro-1H-indol-6-yl]cyclopropanesulfonamide], the pIC50 on human Lck enzyme is 7.42; on human Src enzyme it was 7.08; on human Yes1 enzyme, 9.10.
